pIC50: −log10 of the molar value.
These compounds were tested against T1, protein farnesyl transferase (Bos taurus, UniProt P29702+P49355) (assay: Inhibition of protein farnesyl transferase (dansyl-GCVLS fluorescence)). Conditions: enzyme partially purified from bovine brain; 2 μM FPP, 2 μM dansyl GCVLS, 10 minutes at 37° C.; read-out: IC50 (PFTase).
T1 construct: partially purified from bovine brain by ion-exchange chromatography; from tissue; host or cells: bovine brain
Type: biochemical
Method: A) Evaluation of the Inhibition of Protein Famesyl Transferase:
The famesylation of the dansylated peptide GCVLS, catalyzed with the enzyme protein famesyl transferase results in a change in the emission spectrum of the dansyl group, and especially an increase in the emission at 505 nm when the molecule is excited at 340 nm. When measured using the spectrofluorimeter, this emission is proportional to the activity of the enzyme (Pompliano et al., J. Am. Chem. Soc. 1992; 114: 7945-7946).
55 mM TRIS/HCl pH 7.5; 5.5 mM DTT; 5.5 mM MgCl2; 110 μM ZnCl2, 0.22% B-octyl-B D-glucopyrannoside.
Farnesyl pyrophosphate (FPP), (Sigma)
Dansylated peptide dansyl-GCVLS (Neosystem/Strasbourg, France)
The protein farnesyl transferase is partially purified from bovine brain by ion-exchange chromatography on Q-sepharose (Pharmacia) (Moores et al., J. Biol. Chem. 1991, 266: 14603-14610, Reiss et al., Cell 1990, 62: 81-88).
The reaction mixture containing 2 μM of FPP, 2 μM of dansyl GCVLS with or without (zero) the amount of enzyme giving an intensity of 100 on the spectrofluorimeter after incubation for 10 minutes at 37° C., is prepared on ice.
In an Eppendorf tube, 360 μL of reaction mixture are mixed with 40 μl of 10× concentrated test product or of solvent, and incubated for 10 minutes at 37° C. The reaction is quenched on ice and the fluorescence intensity is measured (excitation at 340 nm, 4 nm slit, emission at 505 nm, 10 nm slit). The tests are performed in duplicate. The results are expressed as a percentage of inhibition. Under these conditions, the derivatives of the present invention were identified as powerful inhibitors of protein farnesyl transferase (IC50<10 μM).
Adaptation of the method to a 96-well format:
The procedure is similar to that above, except that the measurements are performed in a “Black Fluorotrack 200” 96-well device (Greiner, Poitiers, France) and the readings are performed using a “Spectrametrix Gemini” 96-well fluorimeter (Molecular Devices, Sunnyvale, Calif., USA)

Structure (SMILES)	pIC50
N#Cc1ccc(Cn2cncc2CN(C(=O)c2cccs2)c2ccc(N3CCN(C(=O)c4ccc(Cl)s4)CC3)cc2)cc1 [Example 109, Thiophene-2-carboxylic acid {4-[4-(5-chloro-2-thiophenecarbonyl)-1-piperazinyl]phenyl}[3-(4-cyanobenzyl)-3H-imidazol-4-ylmethyl]amide]	9.00
N#Cc1ccc(Cn2cncc2CN(C(=O)c2ccccc2F)c2ccc(N3CCN(C(=O)c4ccc(Cl)s4)CC3)cc2)cc1 [Example 113, N-{4-[4-(5-Chloro-2-thiophenecarbonyl)-1-piperazinyl]phenyl}-N-[3-(4-cyanobenzyl)-3H-imidazol-4-ylmethyl]-2-fluorobenzamide]	8.70
N#Cc1ccc(Cn2cncc2CN(C(=O)C2CCCCC2)c2ccc(N3CCN(C(=O)c4ccc(Cl)s4)CC3)cc2)cc1 [Example 124, Cyclohexanecarboxylic acid {4-[4-(5-chloro-2-thiophenecarbonyl)-1-piperazinyl]phenyl}-[3-(4-cyanobenzyl)-3H-imidazol-4-ylmethyl]amide]	8.70
N#Cc1ccc(Cn2cncc2CN(C(=O)c2ccccc2)c2ccc(N3CCN(C(=O)c4ccc(Cl)s4)CC3)cc2)cc1 [Example 108, N-{4-[4-(5-Chloro-2-thiophenecarbonyl)-1-piperazinyl]phenyl}N-[3-(4-cyanobenzyl)-3H-imidazol-4-ylmethyl]benzamide]	8.70
N#Cc1ccc(Cn2cncc2CN(C(=O)c2ccc(C#N)cc2)c2ccc(N3CCN(C(=O)c4ccc(Cl)s4)CC3)cc2)cc1 [Example 123, N-{4-[4-(5-Chloro-2-thiophenecarbonyl)-1-piperazinyl]phenyl}-4-cyano-N-[3-(4-cyanobenzyl)-3H-imidazol-4-ylmethyl]-benzamide]	8.70

Continued by rising pIC50, values first:

pIC50	Structure (SMILES)
8.05	CC(C)CNC(=S)N1CCC(c2ccc(N(Cc3cnc[nH]3)S(=O)(=O)c3ccccc3)cc2)CC1 [Example 141, 4-{4-[Benzenesulfonyl-(3H-imidazol-4-ylmethyl)amino]phenyl}piperidine-1-carbothioic acid isobutylamide]
8.15	CCCNC(=O)N(Cc1cnc[nH]1)c1ccc(N2CCN(C(=O)c3ccc(Cl)s3)CC2)cc1 [Example 82, 1-{4-[4-(5-Chloro-2-thiophenecarbonyl)-1-piperazinyl]phenyl}-1-(3H-imidazol-4-ylmethyl)-3-propyl-urea]
8.22	CC(C)CNC(=S)N1CCN(c2ccc(N(Cc3cnc[nH]3)S(=O)(=O)c3ccccc3)cc2)CC1 [Example 45, 4-{4-[Benzenesulfonyl-(3H-imidazol-4-ylmethyl)amino]phenyl}-1-piperazinecarbothioic acid isobutylamide]
8.70	N#Cc1ccc(Cn2cncc2CN(C(=O)c2cccc(F)c2)c2ccc(N3CCN(C(=O)c4ccc(Cl)s4)CC3)cc2)cc1 [Example 114, N-{4-[4-(5-Chloro-2-thiophenecarbonyl)-1-piperazinyl]phenyl}-N-[3-(4-cyanobenzyl)-3H-imidazol-4-ylmethyl]-3-fluorobenzamide]
8.70	N#Cc1ccc(Cn2cncc2CN(C(=O)c2ccccc2Cl)c2ccc(N3CCN(C(=O)c4ccc(Cl)s4)CC3)cc2)cc1 [Example 110, 2-Chloro-N-{4-[4-(5-chloro-2-thiophenecarbonyl)-1-piperazinyl]phenylk}-N-[3-(4-cyanobenzyl)-3H-imidazol-4-ylmethyl]benzamide]
9.05	N#Cc1ccc(Cn2cncc2CN(c2ccc(N3CCN(C(=O)c4ccc(Cl)s4)CC3)cc2)S(=O)(=O)c2ccccc2C#N)cc1 [Example 126, N-{4-[4-(5-Chloro-2-thiophenecarbonyl)-1-piperazinyl]phenyl}-2-cyano-N-[3-(4-cyanobenzyl)-3H-imidazol-4-ylmethyl]benzenesulfonamide]

The compounds below were run against T2, GGPT I (Bos taurus, UniProt P29702+Q5EAD5) (assay: Inhibition of geranylgeranyl transferase protein I (3H-GGPP, RhoA-GST filter assay)). Conditions: enzyme partially purified from bovine brain; 0.2 μM 3H-GGPP, 1 μM RhoA-GST, 45 minutes at 37° C.; read-out: IC50 (PGGTase).
T2 construct: GGPT I is partially purified from bovine brain by ion-exchange chromatography; from tissue; host or cells: bovine brain
Type: biochemical
Method: B) Evaluation of the Inhibition of Geranyl Geraryl Transferase Protein I:
55 mM TRIS/HCl pH 7.5; 5.5 mM DTT; 5.5 mM MgCl2; 110 μM ZnCl2, 0.22% N-octyl-B D-glucopyrannoside.
^3H-geranylgeranyl pyrophosphate (GGPP), 66 μM, 15 CI/mmol, (Isotopchim) Rho-GST recombinant protein
GGPT I is partially purified from bovine brain by ion-exchange chromatography on Q-sepharose (Pharmacia); elution at 0.23 and 0.4 M NaCl, respectively.
The reaction mixture containing 0.2 μM of ^3H-GGPP, 1 μM of RhoA-GST with or without (zero) 5 μl of GGPT/test, is prepared on ice.
In an Eppendorf tube, 45 μl of reaction mixture are mixed with 5 μl of 10× concentrated test product or of solvent, and incubated for 45 minutes at 37° C. A 45 μl aliquot is placed on a phosphocellulose P81 filter (Whatman, Maidstone, UK) numbered, washed with 50% ethanol, phosphoric acid (0.5%) and counted by scintillation.
The tests are performed in duplicate. The results are expressed as a percentage of inhibition.
Adaptation of the Method to a 96-well Format: […]
The tests are performed in triplicate. The results are expressed as a percentage of inhibition.

pIC50	Structure (SMILES)
6.15	N#Cc1ccc(Cn2cncc2CN(C(=O)c2cccs2)c2ccc(N3CCN(C(=O)c4ccc(Cl)s4)CC3)cc2)cc1 [Example 109, Thiophene-2-carboxylic acid {4-[4-(5-chloro-2-thiophenecarbonyl)-1-piperazinyl]phenyl}[3-(4-cyanobenzyl)-3H-imidazol-4-ylmethyl]amide]

Source: patent publication US20040092524A1, “Novel aminophenyl piperazine or aminophenyl piperidine derivatives inhibiting prenyl transferase proteins and method for preparing same” (priority 2000, published 2004)
